# According to patent US20140066620A1, “PYRIMIDINE SUBSTITUTED PURINE DERIVATIVES” (VERASTEM, INC., priority 2007, published 2014):
# What was measured:
# [1] = target: T1, Recombinant PI3K p110α/p85 (Homo sapiens, UniProt P42336); experiment: PI3K Assay (radiometric lipid kinase assay); format: biochemical; settings: p110α/p85, 2 μM ATP, 1 hour at RT; read-out: IC50 (PI3Kα)
# T1 construct: made in house
# Experimental: Recombinant PI3K p110α/p85 was prepared in-house. Phosphatidylinositol (PtdIns), phosphotidylserine (PtdSer) and all other unspecified chemicals were purchased from Sigma-Aldrich. [γ^33P]ATP and Optiphase scintillant were obtained from Perkin Elmer.
# Assays were performed in a final assay volume of 25 μL in 384-well Maxisorp plates (Nunc). […] Maxisorp plates were coated with 20 μL/well of a 1:1 mixture of PtdIns and PtdSer [0.1 mg/mL each dissolved in chloroform:ethanol (3:7)] and left overnight in a fume hood at room temperature (RT) to dry.
# The reaction was incubated for 1 hour at RT and terminated with 30 μL/well of 50 mM EDTA solution. The plate was then washed twice with TBS, dried, and added with 30 μL/well of scintillant before it was counted in a MicroBeta Trilux.
# Truncated mTOR kinase = target: T2, Truncated mTOR kinase (Homo sapiens, UniProt P42345); experiment: mTOR Assay (radiometric phosphorylation of 4eBP1); format: biochemical; settings: 4eBP1 substrate, 10 μM ATP, 1 hour at room temperature
# T2 construct: Truncated mTOR kinase and His-tagged 4eBP1 were produced in-house
# Experimental: Truncated mTOR kinase and His-tagged 4eBP1 were produced in-house. [γ^33P]-ATP was purchased from Amersham (GE Healthcare). All chemicals, unless otherwise stated, were from Sigma-Aldrich.
# Phosphorylation assays were initially performed in a final volume of 20 μL in 384-well polypropylene plate (Greiner). […] The reaction was initiated by adding 10 μL/well of 20 μM ATP solution (final assay concentration 10 μM ATP and 0.4 μCi/well of [γhu 33P]-ATP). After 1 hour incubation at room temperature, the reaction was terminated with 40 μL/well of 20 mM EDTA/1 mM ATP solution.
# 50 μL/well of the stopped reaction mix was then transferred to 384-well MultiScreenHTS-PH filter plate (Millipore) pre-added with 50 μL/well of 1% phosphoric acid. The plate was washed 4 times with 120 μL/well of 0.5% phosphoric acid via vacuum filtration. Finally, 10 μL/well of Optiphase™ SuperMix liquid scintillation cocktail (Perkin Elmer) was added. After minimum 1 hour of incubation, counting was performed in a Wallac MicroBeta TriLux scintillation counter using coincidence counting mode with crosstalk correction.
# PC3 cells = experiment: Cell-based proliferation assay, PC3; settings: Homo sapiens, PC-3, 96 h treatment, Celltiter96 Aqueous One Solution
# Experimental: (§1) Human cancer cell lines PC3 and DU145 (human prostate cancer cell lines), were obtained from ATCC. They were cultured in the media according to the ATCC work instructions. PC3 and DU145 cells were seeded at 1,000 cells per well in 96-well plates, respectively. The plates were incubated at 37° C., 5% CO2, for 24 h. Cells were treated with compounds at various concentrations for 96 h. Cell proliferation was then quantified using Celltiter96 Aqueous One Solution Cell Proliferation Assay from Promega (Madison Wis.). Dose response curves were plotted to determine IC50 values for the compounds using XL-fit (ID Business Solution, Emeryville, Calif.).
# human cancer cell lines = settings: different human cancer cell lines in vitro and xenograft models in vivo; read-out: IC50 (anti-neoplastic activity); cited from earlier work
# DU145 cells = experiment: Cell-based proliferation assay, DU145; settings: Homo sapiens, DU-145, 96 h treatment, Celltiter96 Aqueous One Solution
# Experimental: as §1
# [2] = test system: human breast cancer cell lines; settings: two of eight human breast cancer cell lines, resistant; cited from earlier work
# T1 sequence (P42336 whole entry): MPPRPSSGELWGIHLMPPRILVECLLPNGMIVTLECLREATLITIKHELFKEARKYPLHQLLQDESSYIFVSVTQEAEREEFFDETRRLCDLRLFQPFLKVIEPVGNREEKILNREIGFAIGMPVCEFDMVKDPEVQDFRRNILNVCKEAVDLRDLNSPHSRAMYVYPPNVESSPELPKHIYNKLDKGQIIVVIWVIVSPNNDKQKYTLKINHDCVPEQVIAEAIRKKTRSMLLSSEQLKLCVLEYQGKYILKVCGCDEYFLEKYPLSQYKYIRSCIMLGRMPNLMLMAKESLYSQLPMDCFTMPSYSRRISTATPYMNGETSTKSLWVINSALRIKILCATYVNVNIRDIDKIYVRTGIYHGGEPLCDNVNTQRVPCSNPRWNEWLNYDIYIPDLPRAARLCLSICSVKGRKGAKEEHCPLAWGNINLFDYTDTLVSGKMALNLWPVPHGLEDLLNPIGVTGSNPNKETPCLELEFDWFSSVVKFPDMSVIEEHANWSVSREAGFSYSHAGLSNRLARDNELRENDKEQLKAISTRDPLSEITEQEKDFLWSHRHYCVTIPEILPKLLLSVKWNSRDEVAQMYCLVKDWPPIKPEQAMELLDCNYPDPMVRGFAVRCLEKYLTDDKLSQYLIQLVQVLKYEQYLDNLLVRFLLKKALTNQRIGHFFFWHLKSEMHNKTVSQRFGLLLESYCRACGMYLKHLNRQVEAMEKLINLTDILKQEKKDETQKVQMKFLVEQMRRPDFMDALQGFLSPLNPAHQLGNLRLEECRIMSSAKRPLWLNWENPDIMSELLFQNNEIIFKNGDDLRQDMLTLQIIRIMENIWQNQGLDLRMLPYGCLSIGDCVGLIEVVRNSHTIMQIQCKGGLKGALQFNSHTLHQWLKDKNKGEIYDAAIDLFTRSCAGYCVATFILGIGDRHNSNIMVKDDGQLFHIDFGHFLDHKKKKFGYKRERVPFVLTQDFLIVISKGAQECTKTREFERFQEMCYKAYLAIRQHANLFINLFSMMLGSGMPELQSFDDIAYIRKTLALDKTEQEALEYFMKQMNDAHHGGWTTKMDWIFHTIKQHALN
# T1 sequence (P27986 whole entry partner): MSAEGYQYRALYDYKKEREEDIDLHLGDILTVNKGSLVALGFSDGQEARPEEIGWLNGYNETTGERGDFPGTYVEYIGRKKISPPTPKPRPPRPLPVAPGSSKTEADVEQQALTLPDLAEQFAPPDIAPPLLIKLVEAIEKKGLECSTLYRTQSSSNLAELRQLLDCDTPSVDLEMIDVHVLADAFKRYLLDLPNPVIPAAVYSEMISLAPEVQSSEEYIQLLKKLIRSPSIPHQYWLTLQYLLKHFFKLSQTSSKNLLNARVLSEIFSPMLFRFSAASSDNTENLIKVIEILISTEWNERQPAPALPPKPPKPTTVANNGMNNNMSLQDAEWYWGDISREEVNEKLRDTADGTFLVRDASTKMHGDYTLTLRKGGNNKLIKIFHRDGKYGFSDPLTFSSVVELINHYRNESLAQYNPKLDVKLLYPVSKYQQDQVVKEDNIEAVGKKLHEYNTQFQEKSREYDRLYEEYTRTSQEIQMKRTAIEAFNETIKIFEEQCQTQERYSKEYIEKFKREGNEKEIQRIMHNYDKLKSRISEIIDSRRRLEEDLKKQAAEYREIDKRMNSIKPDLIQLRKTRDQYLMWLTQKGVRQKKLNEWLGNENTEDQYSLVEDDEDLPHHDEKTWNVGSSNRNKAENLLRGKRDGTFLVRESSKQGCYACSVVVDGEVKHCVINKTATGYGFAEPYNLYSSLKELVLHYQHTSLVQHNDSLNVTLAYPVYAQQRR
# T2 sequence (P42345 2156-2549 limits assumed): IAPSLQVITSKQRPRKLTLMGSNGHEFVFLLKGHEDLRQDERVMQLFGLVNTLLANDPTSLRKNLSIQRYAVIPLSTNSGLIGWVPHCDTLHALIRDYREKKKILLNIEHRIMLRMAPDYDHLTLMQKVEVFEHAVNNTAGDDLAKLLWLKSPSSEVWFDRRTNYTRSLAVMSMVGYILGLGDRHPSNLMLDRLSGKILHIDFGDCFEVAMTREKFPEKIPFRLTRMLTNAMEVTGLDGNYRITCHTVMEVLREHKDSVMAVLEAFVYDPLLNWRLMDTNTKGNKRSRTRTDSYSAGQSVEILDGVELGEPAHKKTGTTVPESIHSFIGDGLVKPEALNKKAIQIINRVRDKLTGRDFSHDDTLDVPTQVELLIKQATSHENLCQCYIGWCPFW
SMILES,IC50 [1] [µM],IC50 (Truncated mTOR kinase) [µM],also measured
CC(COC(C)(C)C)n1cnc2c(-c3cnc(N)nc3)nc(N3CCOCC3)nc21 (stereo not drawn) [Compound 5],< 1,1 to 5,–
CCC(C#N)n1cnc2c(-c3cnc(N)nc3)nc(N3CCOCC3)nc21 (stereo not drawn) [Compound 23],< 1,< 1,IC50 (PC3 cells): ≤ 1 µM
CCCC(=O)N1CCC(n2cnc3c(-c4cnc(N)nc4)nc(N4CCOCC4)nc32)CC1 [Compound 21],< 1,< 1,IC50 (PC3 cells): ≤ 1 µM
Nc1ncc(-c2nc(N3CCOCC3)nc3c2ncn3[C@H]2CCOC2)cn1 [Compound 18],< 1,–,–
CC(C)(C)OC(=O)N1CCC(n2cnc3c(-c4cnc(N)nc4)nc(N4CCOCC4)nc32)CC1 [Compound 19],< 1,< 1,IC50 (PC3 cells): ≤ 1 µM
Cc1nc(N)ncc1-c1nc(N2CCOCC2)nc2c1ncn2C(C)C1CC1 (stereo not drawn) [Compound 15],< 1,> 5,–
Cc1nc(N)ncc1-c1nc(N2CCOCC2)nc2c1ncn2C(C)c1ccccc1 (stereo not drawn) [Compound 17],< 1,> 5,–
Nc1ncc(-c2nc(N3CCOCC3)nc3c2ncn3C2CCCC2)cn1 [Compound 7],< 1,< 1,–
Nc1ncc(-c2nc(N3CCOCC3)nc3c2ncn3Cc2c(F)cccc2F)cn1 [Compound 1],< 1,1 to 5,–
COCC(C)n1cnc2c(-c3cnc(N)nc3OC)nc(N3CCOCC3)nc21 (stereo not drawn) [Compound 13],< 1,1 to 5,–
c1ccc(Cn2cnc3c(-c4cncnc4)nc(N4CCOCC4)nc32)cc1 [Compound 4],< 1,> 5,–
COCC(C)n1cnc2c(-c3cnc(N)nc3C)nc(N3CCOCC3)nc21 (stereo not drawn) [Compound 16],< 1,> 5,–
Nc1ncc(-c2nc(N3CCOCC3)nc3c2ncn3C2CCOC2)cn1 (stereo not drawn) [Compound 18],–,< 1,IC50 (PC3 cells): ≤ 1 µM
CCC(C)n1cnc2c(-c3cnc(N)nc3OC)nc(N3CCOCC3)nc21 (stereo not drawn) [Compound 8],< 1,< 1,–
CC(C)C(C)n1cnc2c(-c3cnc(N)nc3)nc(N3CCOCC3)nc21 (stereo not drawn) [Compound 22],< 1,< 1,IC50 (PC3 cells): ≤ 1 µM
CC[C@@H](C)n1cnc2c(-c3cnc(N)nc3)nc(N3CCOCC3)nc21 [Compound 25],–,–,IC50 (PC3 cells): ≤ 1 µM
CCC(CC)n1cnc2c(-c3cnc(N)nc3)nc(N3CCOCC3)nc21 [Compound 24],< 1,< 1,–
CCC(C)n1cnc2c(-c3cncnc3)nc(N3CCOCC3)nc21 (stereo not drawn) [Compound 6],< 1,1 to 5,–
CC(c1ccccc1)n1cnc2c(-c3cnc(N)nc3)nc(N3CCOCC3)nc21 (stereo not drawn) [Compound 9],< 1,1 to 5,–
COc1nc(N)ncc1-c1nc(N2CCOCC2)nc2c1ncn2C(C)C1CC1 (stereo not drawn) [Compound 11],< 1,1 to 5,–
"CO[C@H]1C[C@@H]2CC[C@@H](C)[C@@](O)(O2)C(=O)C(=O)N2CCCC[C@H]2C(=O)O[C@H]([C@H](C)C[C@@H]2CC[C@@H](OCCO)[C@H](OC)C2)CC(=O)[C@H](C)/C=C(\C)[C@@H](O)[C@@H](OC)C(=O)[C@H](C)C[C@H](C)/C=C/C=C/C=C/1C [RAD001, 40-O-(2-hydroxyethyl)-rapamycin]",–,–,IC50 (human cancer cell lines): 0.005 to 1.8 µM
Nc1ncc(-c2nc(N3CCOCC3)nc3c2ncn3CC2CC2)cn1 [Compound 3],< 1,< 1,IC50 (DU145 cells): 1 to 5 µM
CC(C1CC1)n1cnc2c(-c3cnc(N)nc3)nc(N3CCOCC3)nc21 (stereo not drawn) [Compound 10],< 1,< 1,IC50 (PC3 cells): ≤ 1 µM
COCC(C)n1cnc2c(-c3cnc(N)nc3)nc(N3CCOCC3)nc21 (stereo not drawn) [Compound 12],< 1,< 1,–
CCC(C)n1cnc2c(-c3cnc(N)nc3C)nc(N3CCOCC3)nc21 (stereo not drawn) [Compound 14],< 1,> 5,–
"CCC(C)n1c(Br)nc2c(-c3cnc(N)nc3)nc(N3CCOCC3)nc21 (stereo not drawn) [Compound 42, 5-(8-Bromo-9-sec-butyl-2-morpholin-4-yl-9H-purin-6-yl)-pyrimidin-2-ylamine]",–,–,IC50 (PC3 cells): ≤ 1 µM
CCC(C)n1cnc2c(-c3cnc(N)nc3)nc(N3CCOCC3)nc21 (stereo not drawn) [Compound 26],–,–,IC50 (PC3 cells): ≤ 1 µM
CCC(C)n1cnc2c(-c3cnc(NC)nc3)nc(N3CCOCC3)nc21 (stereo not drawn) [Compound 20],< 1,< 1,–
"Cc1cccc(-n2cnc3c(-c4cnc(N)nc4)nc(N4CCOCC4)nc32)c1 [Compound 27, 5-(2-morpholin-4-yl-9-m-tolyl-9H-purin-6-yl)-pyrimidin-2-yl-amine]",< 1,< 1,–
CO[C@H]1C[C@@H]2CC[C@@H](C)[C@@](O)(O2)C(=O)C(=O)N2CCCC[C@H]2C(=O)O[C@H]([C@H](C)C[C@@H]2CC[C@@H](OC(=O)C(C)(CO)CO)[C@H](OC)C2)CC(=O)[C@H](C)/C=C(\C)[C@@H](O)[C@@H](OC)C(=O)[C@H](C)C[C@H](C)/C=C/C=C/C=C/1C [CCI-779],–,–,IC50 [2]: > 1 µM

# The next lines start with results.
IC50 [1] [µM],IC50 (Truncated mTOR kinase) [µM],SMILES,also measured
< 1,–,CCC(C)n1cnc2c(-c3cnc(N)nc3)nc(N3CCOC[C@@H]3C)nc21 (stereo partly drawn) [Compound 35],–
–,< 1,CCC(C)n1cnc2c(-c3cnc(N)nc3)nc(N3CCOCC3C)nc21 (stereo not drawn) [Compound 35],IC50 (PC3 cells): ≤ 1 µM
< 1,< 1,CC1CCC(n2cnc3c(-c4cnc(N)nc4)nc(N4CCOCC4)nc32)C1 (mixture of isomers) [Compound 37],IC50 (PC3 cells): ≤ 1 µM
< 1,< 1,Nc1ncc(-c2nc(N3CCOCC3)nc3c2ncn3-c2ccccc2)cn1 [Compound 38],–
< 1,< 1,CC1CCC(n2cnc3c(-c4cnc(N)nc4)nc(N4CCOCC4)nc32)CC1 (stereo not drawn) [Compound 36],–
< 1,< 1,Nc1ncc(-c2nc(N3CCOCC3)nc3c2ncn3C2CCc3ccccc3C2)cn1 (stereo not drawn) [Compound 30],–
< 1,< 1,"Cc1ccc(C(=O)N2CCC(n3cnc4c(-c5cnc(N)nc5)nc(N5CCOCC5)nc43)C2)s1 (stereo not drawn) [Compound 33, {3-[6-(2-Amino-pyrimidin-5-yl)-2-morpholin-4-yl-purin-9-yl]-pyrrolidin-1-yl}-(5-methyl-thiophen-2-yl)-methanone]",–
< 1,1 to 5,Nc1ncc(-c2nc(N3CCOCC3)nc3[nH]cnc23)cn1 [Compound 34],–
< 1,< 1,Nc1ncc(-c2nc(N3CCOCC3)nc3c2ncn3C2CCN(C(=O)c3ccccc3)C2)cn1 (stereo not drawn) [Compound 32],–
< 1,< 1,Nc1ncc(-c2nc(N3CCOCC3)nc3c2ncn3C2Cc3ccccc3C2)cn1 [Compound 31],–
< 1,< 1,CC(C)(C)Cn1cnc2c(-c3cnc(N)nc3)nc(N3CCOCC3)nc21 [Compound 29],IC50 (PC3 cells): ≤ 1 µM
–,1 to 5,Nc1ncc(-c2nc(N3CCOCC3)nc3c2ncn3C2CCNC2)cn1 (stereo not drawn) [Compound 28],–
